# From PubChem BioAssay (NCI)
#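 Interpolation was linear, between the two tested concentrations surrounding the appropriate level; five concentrations were tested over 48 hours in 96-well plates. TGI: total growth inhibition.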
# Assays:
# Test in all cases: NCI tumour cell line growth inhibition, 48 h
# 786-0 renal = system: 786-0 renal
# SW-620 colon = system: SW-620 colon
# K-562 leukemia = system: K-562 leukemia
# HCT-116 colon = system: HCT-116 colon
# UACC-257 melanoma = system: UACC-257 melanoma
# OVCAR-3 ovarian = system: OVCAR-3 ovarian
# MALME-3M melanoma = system: MALME-3M melanoma
# COLO 205 colon = system: COLO 205 colon
# RXF 393 renal = system: RXF 393 renal
# DMS 273 small cell lung = system: DMS 273 small cell lung
# A549 NSCLC = system: A549 NSCLC
# SNB-19 CNS = system: SNB-19 CNS
# NCI-H23 lung = system: NCI-H23 lung
# DLD-1 colon = system: DLD-1 colon
# HOP-92 NSCLC = system: HOP-92 NSCLC
# LOX IMVI melanoma = system: LOX IMVI melanoma
# NCI-H522 lung = system: NCI-H522 lung
# SNB-78 CNS = system: SNB-78 CNS
# HOP-62 NSCLC = system: HOP-62 NSCLC
# UO-31 renal = system: UO-31 renal
# OVCAR-5 ovarian = system: OVCAR-5 ovarian
# SK-OV-3 ovarian = system: SK-OV-3 ovarian
# U251 CNS = system: U251 CNS
# SK-MEL-2 melanoma = system: SK-MEL-2 melanoma
# HOP-18 NSCLC = system: HOP-18 NSCLC
# UACC-62 melanoma = system: UACC-62 melanoma
# SNB-75 CNS = system: SNB-75 CNS
# HT29 colon = system: HT29 colon
# LXFL 529 NSCLC = system: LXFL 529 NSCLC
# TK-10 renal = system: TK-10 renal
# HCC-2998 colon = system: HCC-2998 colon
# M19-MEL melanoma = system: M19-MEL melanoma
# NCI-H460 lung = system: NCI-H460 lung
# NCI-H226 lung = system: NCI-H226 lung
# EKVX NSCLC = system: EKVX NSCLC
# RXF-631 renal = system: RXF-631 renal
# OVCAR-4 ovarian = system: OVCAR-4 ovarian
# DMS 114 small cell lung = system: DMS 114 small cell lung
# HCT-15 colon = system: HCT-15 colon
# ACHN renal = system: ACHN renal
# SF-268 CNS = system: SF-268 CNS
# CAKI-1 renal = system: CAKI-1 renal
# HL-60(TB) leukemia = system: HL-60(TB) leukemia
# SK-MEL-5 melanoma = system: SK-MEL-5 melanoma
# KM20L2 colon = system: KM20L2 colon
# CCRF-CEM leukemia = system: CCRF-CEM leukemia
# XF 498 CNS = system: XF 498 CNS
# SF-295 CNS = system: SF-295 CNS
# SK-MEL-28 melanoma = system: SK-MEL-28 melanoma
# A498 renal = system: A498 renal
# SN12C renal = system: SN12C renal
# IGROV1 ovarian = system: IGROV1 ovarian
# OVCAR-8 ovarian = system: OVCAR-8 ovarian
# M14 melanoma = system: M14 melanoma
# MOLT-4 leukemia = system: MOLT-4 leukemia
# RPMI-8226 leukemia = system: RPMI-8226 leukemia
# NCI/ADR-RES ovarian = system: NCI/ADR-RES ovarian
# P388/ADR leukemia = system: P388/ADR leukemia
# MCF7 breast = system: MCF7 breast
# KM12 colon = system: KM12 colon
# P388 leukemia = system: P388 leukemia
# SN12K1 renal = system: SN12K1 renal
# SF-539 CNS = system: SF-539 CNS
smiles,measurement,setting,value
CCOC(=O)CCn1[nH]c(=O)c(Cl)c(Cl)c1=O,TGI,786-0 renal,> 100 µM
same,TGI,SW-620 colon,> 100 µM
same,TGI,K-562 leukemia,> 100 µM
same,TGI,HCT-116 colon,> 100 µM
same,TGI,UACC-257 melanoma,> 100 µM
same,TGI,OVCAR-3 ovarian,> 100 µM
same,TGI,MALME-3M melanoma,> 100 µM
same,TGI,COLO 205 colon,> 100 µM
same,TGI,RXF 393 renal,> 100 µM
same,TGI,DMS 273 small cell lung,> 100 µM
same,TGI,A549 NSCLC,> 100 µM
same,TGI,SNB-19 CNS,> 100 µM
same,TGI,NCI-H23 lung,> 100 µM
same,TGI,DLD-1 colon,> 100 µM
same,TGI,HOP-92 NSCLC,> 100 µM
same,TGI,LOX IMVI melanoma,> 100 µM
same,TGI,NCI-H522 lung,> 100 µM
same,TGI,SNB-78 CNS,> 100 µM
same,TGI,HOP-62 NSCLC,> 100 µM
same,TGI,UO-31 renal,> 100 µM
same,TGI,OVCAR-5 ovarian,> 100 µM
same,TGI,SK-OV-3 ovarian,> 100 µM
same,TGI,U251 CNS,> 100 µM
same,TGI,SK-MEL-2 melanoma,> 100 µM
same,TGI,HOP-18 NSCLC,> 100 µM
same,TGI,UACC-62 melanoma,> 100 µM
same,TGI,SNB-75 CNS,> 100 µM
same,TGI,HT29 colon,> 100 µM
same,TGI,LXFL 529 NSCLC,> 100 µM
same,TGI,TK-10 renal,> 100 µM
same,TGI,HCC-2998 colon,> 100 µM
same,TGI,M19-MEL melanoma,> 100 µM
same,TGI,NCI-H460 lung,> 100 µM
same,TGI,NCI-H226 lung,> 100 µM
same,TGI,EKVX NSCLC,> 100 µM
same,TGI,RXF-631 renal,> 100 µM
same,TGI,OVCAR-4 ovarian,> 100 µM
same,TGI,DMS 114 small cell lung,> 100 µM
same,TGI,HCT-15 colon,> 100 µM
same,TGI,ACHN renal,> 100 µM
same,TGI,SF-268 CNS,> 100 µM
same,TGI,CAKI-1 renal,> 100 µM
same,TGI,HL-60(TB) leukemia,> 100 µM
same,TGI,SK-MEL-5 melanoma,> 100 µM
same,TGI,KM20L2 colon,> 100 µM
same,TGI,CCRF-CEM leukemia,> 100 µM
same,TGI,XF 498 CNS,> 100 µM
same,TGI,SF-295 CNS,> 100 µM
same,TGI,SK-MEL-28 melanoma,> 100 µM
same,TGI,A498 renal,> 100 µM
same,TGI,SN12C renal,> 100 µM
same,TGI,IGROV1 ovarian,> 100 µM
same,TGI,OVCAR-8 ovarian,> 100 µM
same,TGI,M14 melanoma,> 100 µM
C=C(C)C(=O)OC1CCC2(C)C(CCC3C2CCC2(C)C(c4ccc(=O)oc4)CC4OC432)C1 (stereo unspecified),TGI,SW-620 colon,25.1 µM
same,TGI,K-562 leukemia,32.9 µM
same,TGI,HCT-116 colon,19 µM
same,TGI,UACC-257 melanoma,17.2 µM
same,TGI,OVCAR-3 ovarian,15.1 µM
same,TGI,MALME-3M melanoma,26.4 µM
same,TGI,COLO 205 colon,22.8 µM
same,TGI,RXF 393 renal,9.95 µM
same,TGI,DMS 273 small cell lung,20.5 µM
same,TGI,A549 NSCLC,25.4 µM
same,TGI,SNB-19 CNS,72.5 µM
same,TGI,NCI-H23 lung,19.3 µM
same,TGI,DLD-1 colon,7.38 µM
same,TGI,MOLT-4 leukemia,15.5 µM
same,TGI,HOP-92 NSCLC,9.96 µM
same,TGI,LOX IMVI melanoma,24.1 µM
same,TGI,NCI-H522 lung,8.78 µM
same,TGI,RPMI-8226 leukemia,20.1 µM
same,TGI,SNB-78 CNS,60.7 µM
same,TGI,HOP-62 NSCLC,10.5 µM
same,TGI,NCI/ADR-RES ovarian,26 µM
same,TGI,P388/ADR leukemia,31.7 µM
same,TGI,UO-31 renal,35.8 µM
same,TGI,OVCAR-5 ovarian,106 µM
same,TGI,SK-OV-3 ovarian,99.8 µM
same,TGI,U251 CNS,30.3 µM
same,TGI,SK-MEL-2 melanoma,10.2 µM
same,TGI,HOP-18 NSCLC,104 µM
same,TGI,MCF7 breast,13.2 µM
same,TGI,UACC-62 melanoma,17.2 µM
same,TGI,SNB-75 CNS,36.6 µM
same,TGI,HT29 colon,52 µM
same,TGI,KM12 colon,24.3 µM
same,TGI,HCC-2998 colon,17.8 µM
same,TGI,M19-MEL melanoma,10.7 µM
same,TGI,NCI-H460 lung,7.99 µM
same,TGI,NCI-H226 lung,48.1 µM
same,TGI,EKVX NSCLC,11 µM
same,TGI,OVCAR-4 ovarian,34 µM
same,TGI,DMS 114 small cell lung,9.11 µM
same,TGI,P388 leukemia,15.5 µM
same,TGI,HCT-15 colon,32 µM
same,TGI,SF-268 CNS,31.9 µM
same,TGI,CAKI-1 renal,15 µM
same,TGI,SN12K1 renal,17.6 µM
same,TGI,HL-60(TB) leukemia,9.64 µM
same,TGI,SK-MEL-5 melanoma,19.1 µM
same,TGI,KM20L2 colon,40.4 µM
same,TGI,CCRF-CEM leukemia,15.3 µM
same,TGI,XF 498 CNS,21 µM
same,TGI,SF-295 CNS,23.1 µM
same,TGI,SK-MEL-28 melanoma,44.5 µM
same,TGI,A498 renal,21.8 µM
same,TGI,SN12C renal,24.1 µM
same,TGI,IGROV1 ovarian,20.5 µM
same,TGI,OVCAR-8 ovarian,24 µM
same,TGI,SF-539 CNS,27.9 µM
